Test results: paper PMC7615363 (2023)

Experiments:
[1] = system: T5R8/359 (RNA, aptamer) GGAUGAGCGACGCUGGAAGGAAGAAAAUGCAGAAAAAAAGAAAAAAAUGUCUGGGUCUGGCGACUGCUC; experiment: isothermal titration calorimetry; conditions: 100 mM NaCl, 5 mM MgCl2, 50 mM HEPES, pH 7.6, 25 °C
[2] = system: T8R16/409 (RNA, aptamer) GCCUGCAAGUGCGACGAAUGGGAAAUAGCAAAAGAAAACAGAGACACCGACAUGUUAGAGACCACCGACGUG; experiment: isothermal titration calorimetry; conditions: 100 mM NaCl, 5 mM MgCl2, 50 mM HEPES, pH 7.6, 25 °C
[3] = RNA 6 μM, nucleotide 100–200 μM in syringe

Row | SMILES | binding [1, 3] | Kd ([2]; one-site fit) | Kd ([1]; one-site fit with stoichiometry constrained to 0.5) | binding [2, 3]
1 | Nc1nc2c(ncn2[C@@H]2O[C@H](COP(=O)(O)OP(=O)(O)OP(=O)(O)O)[C@@H](O)[C@H]2O)c(=O)[nH]1 | no | ~ 0.5 μM |  | 
2 | Nc1ncnc2c1ncn2[C@@H]1O[C@H](COP(=O)(O)OP(=O)(O)OP(=O)(O)O)[C@@H](O)[C@H]1O |  |  | ~ 7 μM | no
